We go through 3 compounds from paper PMC5567048, “A novel c-di-GMP binding domain in glycosyltransferase BgsA is responsible for the synthesis of a mixed-linkage β-glucan” (Scientific Reports, 2017).

Substitutions are numbered along the chain they refer to.

For assay [1], the target named is T1, C-BgsA (Sinorhizobium meliloti, UniProt Q92WG2, G635R).
T1 construct: gene SM_b20391
T1 sequence (Q92WG2 526-664 G635R): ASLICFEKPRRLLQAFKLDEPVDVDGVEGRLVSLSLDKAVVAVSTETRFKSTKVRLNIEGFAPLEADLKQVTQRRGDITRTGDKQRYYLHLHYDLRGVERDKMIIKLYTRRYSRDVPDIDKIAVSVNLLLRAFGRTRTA
The experiment in a line: SPR direct binding, immobilised ligand.

Assay [2] deals with T2, C-BgsA (Sinorhizobium meliloti, UniProt Q92WG2).
T2 construct: gene SM_b20391
T2 sequence (Q92WG2 526-664): T1 sequence (Q92WG2 526-664 G635R) with R110G
The experiment in a line: SPR direct binding, immobilised ligand.

Assay [3] concerns the target T3, C-BgsA (Sinorhizobium meliloti, UniProt Q92WG2, G635V).
T3 construct: gene SM_b20391
T3 sequence (Q92WG2 526-664 G635V): T1 sequence (Q92WG2 526-664 G635R) with R110V
The experiment in a line: SPR direct binding, immobilised ligand.

For assay [4], the target named is T2, C-BgsA. The assay can be described thus: SPR solution competition against immobilised […]′-AHC-c-di-GMP chip. Format: binding. To be noted: weak competitor; c-di-GMP at the same concentration gave 98%; 20 mM MOPS pH 8.0, 300 mM NaCl, 25 °C.
Assay [5] has as its target T4, C-BgsA (Sinorhizobium meliloti, UniProt Q92WG2, D608A).
T4 construct: gene SM_b20391
The assay is described as above. Format: binding.

The target of assay [6] is T5, C-BgsA (Sinorhizobium meliloti, UniProt Q92WG2, R605A).
T5 construct: gene SM_b20391
The description is as above. Format: binding.

Assay [7] deals with T6, C-BgsA (Sinorhizobium meliloti, UniProt Q92WG2, R599A).
T6 construct: gene SM_b20391
The description is as above. The class given is binding.

For assay [8], the target named is T7, C-BgsA (Sinorhizobium meliloti, UniProt Q92WG2, R656A).
T7 construct: gene SM_b20391
The description is as above. The class given is binding.

Assay [9] has as its target T2, C-BgsA. Described as above. Format: binding.
The target of assay [10] is T8, C-BgsA (Sinorhizobium meliloti, UniProt Q92WG2, H615A).
T8 construct: gene SM_b20391
The assay is described as above. The class given is binding.

The target in assay [11] is T9, C-BgsA (Sinorhizobium meliloti, UniProt Q92WG2, Y633A).
T9 construct: gene SM_b20391
The assay is described as above. The class given is binding.

T5 sequence (Q92WG2 entry or part of it R605A): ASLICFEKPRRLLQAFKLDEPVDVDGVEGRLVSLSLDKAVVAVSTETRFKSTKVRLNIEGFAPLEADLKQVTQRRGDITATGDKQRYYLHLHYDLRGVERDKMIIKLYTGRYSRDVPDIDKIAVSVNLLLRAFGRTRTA
T4 sequence (Q92WG2 entry or part of it D608A): as the sequence (Q92WG2 entry or part of it R605A) above, with A80R, D83A counted along it
T6 sequence (Q92WG2 entry or part of it R599A): as the sequence (Q92WG2 entry or part of it R605A) above, with R74A, A80R counted along it
T9 sequence (Q92WG2 entry or part of it Y633A): as the sequence (Q92WG2 entry or part of it R605A) above, with A80R, Y108A counted along it
T8 sequence (Q92WG2 entry or part of it H615A): as the sequence (Q92WG2 entry or part of it R605A) above, with A80R, H90A counted along it
T7 sequence (Q92WG2 entry or part of it R656A): as the sequence (Q92WG2 entry or part of it R605A) above, with A80R, R131A counted along it

`NCCCCCCNC(=O)O[C@@H]1[C@@H]2OP(=O)(O)OC[C@H]3O[C@@H](n4cnc5c(=O)[nH]c(N)nc54)[C@H](O)[C@@H]3OP(=O)(O)OC[C@H]2O[C@H]1n1cnc2c(=O)[nH]c(N)nc21` [2′-AHC-c-di-GMP]: the equilibrium dissociation constant (Kd) (in general, the concentration at which binding is half-saturated) in [1] amounted to 0.19 µM; in assay [2], 0.23 µM; in [3] it was 0.14 µM.
`Nc1ncnc2c1ncn2[C@@H]1O[C@@H]2COP(=O)(O)O[C@H]3[C@@H](O)[C@H](n4cnc5c(N)ncnc54)O[C@@H]3COP(=O)(O)O[C@H]2[C@H]1O` [c-di-AMP]: in [4], the “% reduction of C-BgsA binding at 500 μM” value stood at 17%.
Consider `Nc1nc2c(ncn2[C@@H]2O[C@@H]3CO[P@](=O)(O)O[C@H]4[C@@H](O)[C@H](n5cnc6c(=O)[nH]c(N)nc65)O[C@@H]4CO[P@](=O)(O)O[C@H]3[C@H]2O)c(=O)[nH]1` [c-di-GMP], for which the EC50 (commonly the concentration at which the effect is half-maximal) in [5] is 0.27 ± 0.07 µM; in assay [6], 0.14 ± 0.01 µM; in assay [7], 372 ± 114 µM; in assay [8] it was 0.4 ± 0.05 µM; in [9], 0.27 ± 0.01 µM; in [10] it was 292 ± 73 µM. The EC50 in assay [11] worked out at 0.23 ± 0.01 µM.
